Results as given in US8399689B2, “Chrysophaentin antimicrobial compounds that inhibit FtsZ protein” (The United States of America, as represented by the …, priority 2010, dated 2013).
Values after ≈ are worked out from the molar mass of the structure shown. “Also recorded” adds a separate entry of the source.

Experiments:
[1] = target: T1, recombinant E. coli FtsZ (Escherichia coli, UniProt P0A9A6); assay: FtsZ GTPase colorimetric (malachite green) assay; assay type: biochemical; conditions: 2 μM FtsZ, 0.25 mM GTP, pH 6.5
T1 sequence (P0A9A6 whole entry): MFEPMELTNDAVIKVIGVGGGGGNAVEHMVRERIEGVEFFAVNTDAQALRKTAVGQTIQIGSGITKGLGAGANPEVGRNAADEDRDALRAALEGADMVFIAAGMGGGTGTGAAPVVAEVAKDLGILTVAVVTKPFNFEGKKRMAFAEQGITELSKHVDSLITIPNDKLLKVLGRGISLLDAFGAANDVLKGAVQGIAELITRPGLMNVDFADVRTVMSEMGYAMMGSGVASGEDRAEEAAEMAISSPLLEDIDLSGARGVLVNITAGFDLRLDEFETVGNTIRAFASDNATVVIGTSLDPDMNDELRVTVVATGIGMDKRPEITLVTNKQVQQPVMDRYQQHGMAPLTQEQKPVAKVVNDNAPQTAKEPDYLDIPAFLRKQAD
Protocol: Solutions were incubated at room temperature for 5 min, followed by addition of 0.25 mM GTP. At the end of a 20-min incubation period, enzyme activity was quenched by addition of 50 μL Malachite Green solution and the wells read at A^625 on an absorbance plate reader.

[2] = tested on: murine leukemia cell line P388; assay: Cytotoxicity, P388; assay type: cell-based; conditions: did not inhibit growth at concentrations as high as
[3] = tested on: Staphylococcus aureus (SA, ATCC 25923); assay: Agar disk diffusion assay, S. aureus; assay type: cell-based
Protocol: (§1) Compounds 1-8 were tested for antimicrobial activity against Staphylococcus aureus (SA, ATCC 25923), methicillin-resistant S. aureus (MRSA, ATCC BAA-41), multidrug-resistant S. aureus (MDRSA, ATCC BAA-44), Enterococcus faecium (EF, ATCC 49032), vancomycin-resistant E. Faecium (VRE, ATCC 700221), and Bacillus subtilis (ATCC 49343) using a modified disk diffusion assay and microbroth liquid dilution assays. For disk diffusion assays, agar plates seeded with suspensions of bacteria were prepared by adding 500 μL of a 24 h culture of bacteria to 100 mL of autoclaved Mueller Hinton II agar and cooled to 55° C. Seeded liquid agar (10 mL) was transferred immediately to square Petri dishes and allowed to cool for 1 h. Control drugs used for each microorganism included kanamycin (50 μg) for S. aureus, and nitrofurantoin (25 μg) for MRSA. Following incubation at 37° C. for 18 h, zones of inhibition were measured. MICso values for compounds 1 and 4-8 were determined using a microbroth dilution assay outlined in the Clinical and Laboratory Standards Institute methods for susceptibility tests for bacteria that grow aerobically. Briefly, single bacterial colonies were used to inoculate 4 mL of Trypticase Soy broth (BD) for overnight growth and inoculum for each were diluted to 5×10^5 CFU/mL using the 0.5 McFarland standard. In a 96 well plate (Costar, round bottom), control antibiotics (oxacillin for SA and MRSA, vancomycin for EF and VRE, chloramphenicol for B. subtilis) or natural product inhibitors were added to Muller Hinton II broth (for S. aureus, MRSA, and B. subtilis) or 10% brain heart infusion broth (for E. faecium and VRE) in the first column of the well plates, and serially diluted across the plate, reserving wells for a positive growth control (no treatment). 10 μL of diluted bacteria were added to all wells with the exception of those kept for broth blanks (MHII or brain heart infusion broth only). Plates were incubated at 37° C. overnight and read at absorbance 600 nm on a Molecular Devices plate reader. Growth curves were plotted and ICso values obtained using Kalidagraph software.

[4] = target: T1, recombinant E. coli FtsZ; assay: FtsZ polymerization assay by transmission electron microscopy; conditions: 50 μM compound, 6 μM FtsZ, GTP 1 mM
Protocol: Protofilament formation of E. coli FtsZ was assessed by polymerization assays. […] Following an additional 5 minutes incubation period at room temperature, aliquots (5 μL) were adsorbed onto carbon films on lacey carbon supports on 400-mesh copper grids, rinsed with H2O, and exposed to 3% uranyl acetate for 5 minutes for negative staining. Images were acquired with an FEI Morgani transmission electron microscope, operating at 80 kV, and equipped with an AMT Advantage camera at 44,000× magnification.

[5] = tested on: methicillin-resistant S. aureus (MRSA, ATCC BAA-41); assay: Microbroth dilution assay, MRSA; assay type: cell-based, Staphylococcus aureus; conditions: microbroth dilution, concentration at which growth is reduced by 50%
Protocol: as §1

[6] = tested on: control mammalian cell line BSC-1; assay: Cytotoxicity, BSC-1 control cells; assay type: cell-based; conditions: no cytotoxicity at concentrations as high as
[7] = tested on: methicillin-resistant S. aureus (MRSA, ATCC BAA-41); assay: Agar disk diffusion assay, MRSA; assay type: cell-based, Staphylococcus aureus
Protocol: as §1

[8] = Lowest concentrations leading to 8-10 mm zones of inhibition

In the case of `Oc1cc(O)c2c(c1)C/C(Cl)=C\Cc1cc(c(Cl)cc1O)Oc1c(O)cc(cc1O)C/C(Cl)=C\Cc1cc(c(Cl)cc1O)O2` [Compound 1, chrysophaentin 1], the IC50 ([1]; IC50, inhibition of GTPase activity of FtsZ (molar), value in brackets) is reported as 9.9 µM, the IC50 ([1]; IC50, inhibition of GTPase activity of FtsZ) is reported as 9.88 µM and the “concentration without growth inhibition, P388” value [2] is reported as over 50 µg/mL. The “Agar disk diffusion (μg/disk) S. aureus” value [3, 8] was 2 μg/disk, the zone of inhibition at 2 µg/disc ([3]; Staphylococcus aureus, ATCC25923, at 2 μg/disk) was 10 mm and the “GTP-dependent FtsZ polymerization and protofilament formation (TEM)” value [4] was “polymerization and protofilament formation were inhibited; also recorded: fully inhibited polymerization and protofilament formation”. The MIC50 ([5]; Staphylococcus aureus, read-out: MIC50 (μg/mL) MRSA) was 1.5 ± 0.7 µg/mL (≈ 2.21 µM), the “MIC50 (μg/mL) MRSA” value [5] was 1.5 ± 0.7 µg/mL (≈ 2.21 µM) and the “MIC50 (μg/mL) MRSA” value ([5]; listed as Chrysophaentin 1) was 1.8 ± 0.6 µg/mL (≈ 2.65 µM). For the same compound, the “MIC50 (μg/mL) MRSA” value ([5]; listed as chrysophaentin 1) was 1.5 ± 0.7 µg/mL (≈ 2.21 µM), the “concentration without cytotoxicity, BSC-1” value [6] was over 100 µg/mL and the “Agar disk diffusion (μg/disk) MRSA” value [7, 8] was 2 μg/disk. For the same compound, the zone of inhibition at 2 µg/disc ([7]; Staphylococcus aureus, at 2 μg/disk) was 10 mm.
